Calls of active or inactive are those of the source.
How the values were obtained:
NADPH oxidase 1 = NADPH oxidase 1 (Homo sapiens, UniProt Q9Y5S8); format: functional, cell-based;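 further: Cell-based assay with luminescence read-out, IC50 derived from inhibitor dose-response curves; intracellular ROS from endogenous NOX1 in intact HT29 colon cancer cells; potency of inhibitors that lower the ROS luminescence signal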
[1] = target: Inward rectifier potassium channel 2 (Mus musculus, UniProt P35561); assay: Manual electrophysiological patch clamp assay for SAR compounds that inhibit/block inward-rectifying potassium ion channel Kir2.1. [Related pubchem assays: 1843 (Summary assay for Kir2.1 inhibitor assays.), 1672 (Primary HTS of 305616 compounds where 2592 were identified as active.)]; format: functional
Sequence of Inward rectifier potassium channel 2 (P35561 whole entry): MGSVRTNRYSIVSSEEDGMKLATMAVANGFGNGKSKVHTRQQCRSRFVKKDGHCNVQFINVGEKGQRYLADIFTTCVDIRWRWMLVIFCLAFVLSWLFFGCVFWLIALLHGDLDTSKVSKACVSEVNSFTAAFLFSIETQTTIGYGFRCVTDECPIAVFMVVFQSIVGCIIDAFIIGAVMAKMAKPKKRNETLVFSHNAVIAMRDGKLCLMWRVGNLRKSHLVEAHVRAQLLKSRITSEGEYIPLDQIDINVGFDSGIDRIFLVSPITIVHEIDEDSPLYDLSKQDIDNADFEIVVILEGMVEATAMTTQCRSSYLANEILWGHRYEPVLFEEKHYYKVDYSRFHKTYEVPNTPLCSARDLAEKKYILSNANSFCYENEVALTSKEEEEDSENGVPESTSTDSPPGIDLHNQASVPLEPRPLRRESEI

[2] = NIH-3T3 fibroblast cytotoxicity, dose response, cytotoxicity control, cell-based, fluorescence, Alamar Blue, secondary assay (AID 2327); format: functional;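 further: NIH-3T3 mouse fibroblasts cultured with fluconazole at 8 µg/mL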
[3] = target: T1, Neuropeptide Y receptor type 2 (Homo sapiens, UniProt P49146); assay: IC50 for human NPY-Y2 blockade – cell-based, counter-screen for NPY-Y1 antagonist project, dose response (AID 1278); format: functional
T1 sequence (P49146 whole entry): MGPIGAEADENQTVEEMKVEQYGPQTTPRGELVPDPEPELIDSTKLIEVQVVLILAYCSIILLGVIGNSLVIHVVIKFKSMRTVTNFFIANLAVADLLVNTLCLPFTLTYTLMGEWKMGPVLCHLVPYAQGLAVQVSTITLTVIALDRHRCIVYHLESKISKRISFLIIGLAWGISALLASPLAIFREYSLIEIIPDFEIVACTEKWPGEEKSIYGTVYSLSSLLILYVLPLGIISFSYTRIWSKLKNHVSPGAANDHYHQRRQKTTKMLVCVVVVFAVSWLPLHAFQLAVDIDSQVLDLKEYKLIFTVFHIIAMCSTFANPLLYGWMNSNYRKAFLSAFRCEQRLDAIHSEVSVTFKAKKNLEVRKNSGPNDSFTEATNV

[4] = target: T2, Neuropeptide Y receptor type 1 (Homo sapiens, UniProt P25929); assay: IC50 of human NPY-Y1 blockers – cell-based, dose response (AID 1277); format: functional
T2 sequence (P25929 whole entry): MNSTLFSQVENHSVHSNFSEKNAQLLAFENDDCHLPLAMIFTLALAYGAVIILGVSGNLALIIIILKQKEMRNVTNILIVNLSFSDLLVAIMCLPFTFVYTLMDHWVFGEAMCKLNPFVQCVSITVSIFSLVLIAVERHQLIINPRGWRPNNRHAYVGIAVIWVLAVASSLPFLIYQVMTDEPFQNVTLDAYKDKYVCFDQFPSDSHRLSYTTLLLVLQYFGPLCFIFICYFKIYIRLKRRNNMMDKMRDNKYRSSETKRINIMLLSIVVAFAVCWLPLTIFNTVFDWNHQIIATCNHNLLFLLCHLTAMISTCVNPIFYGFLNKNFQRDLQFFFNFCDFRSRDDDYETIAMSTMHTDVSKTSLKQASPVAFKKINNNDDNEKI

[5] = Trypanosoma cruzi growth suppression in host cells – NIH3T3 host cells, beta-gal luminescence, confirmation (AID 2044); format: functional, cell-based;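 further: intracellular parasites grown in NIH/3T3 mouse fibroblasts as host cells; luminescent beta-galactosidase reporter signal from transgenic T. cruzi replicating inside host cells; inhibitors lower the luminescence signal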
[6] = NIH3T3 cell viability loss – ATP luminescence, mouse fibroblasts, counter-screen, dose response (AID 2010); format: functional, cell-based;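 further: cells exposed to compound for about 90 hours before reading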
[7] = HEK-293T cell viability reduction – luminescence, B-cell screen hits, cytotoxicity control for BCR NF-kB inhibitor project, dose response (AID 489021); format: functional, cell-based;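 further: HEK-293T cells carrying an NF-kB luciferase reporter; cells exposed to compound for about 14 hours before viability readout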
INS1 = assay: INS-1E survival protection against cytokine death – cell-based, luminescence, retest, dose response (AID 449756); format: functional; conditions: Rattus norvegicus;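 further: cell death triggered by IL-1 beta plus TNF-alpha plus IFN-gamma mixture; protective hits raise ATP signal compared with cytokine alone wells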
Protein Wnt-3a = Protein Wnt-3a (Mus musculus, UniProt P27467); assay: antagonism of Wnt3a pathway luciferase reporter – Wnt-LIGHT cells, luminescence, selectivity assay for Gli-SUFU antagonist project, dose response (AID 651570); format: functional; conditions: read-out: IC50_Mean;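 further: Wnt-LIGHT reporter cells stimulated with conditioned medium from Wnt3a-producing cells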
Sequence of Protein Wnt-3a (P27467 whole entry): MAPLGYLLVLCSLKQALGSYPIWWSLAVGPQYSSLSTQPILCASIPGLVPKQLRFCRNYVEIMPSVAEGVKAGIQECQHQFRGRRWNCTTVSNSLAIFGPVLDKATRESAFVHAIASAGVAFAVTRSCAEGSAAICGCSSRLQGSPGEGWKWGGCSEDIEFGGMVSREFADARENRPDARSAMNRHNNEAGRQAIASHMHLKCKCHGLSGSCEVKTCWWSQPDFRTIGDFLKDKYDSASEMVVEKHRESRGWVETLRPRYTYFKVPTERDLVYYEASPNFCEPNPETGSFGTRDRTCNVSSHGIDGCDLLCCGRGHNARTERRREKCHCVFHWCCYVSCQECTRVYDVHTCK

Galanin receptor type 3 = target: T3, Galanin receptor type 3 (Homo sapiens, UniProt O60755); assay: Fluorescence-based cell-based primary high throughput dose response assay to identify antagonists of the Galanin Receptor 3 (GalR3).; format: functional
T3 sequence (O60755 whole entry): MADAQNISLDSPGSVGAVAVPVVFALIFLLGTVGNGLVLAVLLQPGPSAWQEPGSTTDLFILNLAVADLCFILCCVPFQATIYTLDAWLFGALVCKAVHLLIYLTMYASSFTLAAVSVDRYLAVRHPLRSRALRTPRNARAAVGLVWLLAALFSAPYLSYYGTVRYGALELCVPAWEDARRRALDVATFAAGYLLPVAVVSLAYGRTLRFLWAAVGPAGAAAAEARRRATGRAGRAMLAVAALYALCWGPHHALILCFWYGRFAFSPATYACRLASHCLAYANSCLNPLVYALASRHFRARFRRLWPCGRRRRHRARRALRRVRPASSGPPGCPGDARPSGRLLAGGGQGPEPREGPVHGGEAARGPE

cells = format: functional, cell-based; conditions: HEK-CNG
[8] = target: T4, Zinc finger protein mex-5 (Caenorhabditis elegans, UniProt Q9XUB2); assay: potency of MEX-5 RNA-binding blockers – biochemical, C. elegans, fluorescence polarization, dose response (AID 1960)
T4 sequence (Q9XUB2 whole entry): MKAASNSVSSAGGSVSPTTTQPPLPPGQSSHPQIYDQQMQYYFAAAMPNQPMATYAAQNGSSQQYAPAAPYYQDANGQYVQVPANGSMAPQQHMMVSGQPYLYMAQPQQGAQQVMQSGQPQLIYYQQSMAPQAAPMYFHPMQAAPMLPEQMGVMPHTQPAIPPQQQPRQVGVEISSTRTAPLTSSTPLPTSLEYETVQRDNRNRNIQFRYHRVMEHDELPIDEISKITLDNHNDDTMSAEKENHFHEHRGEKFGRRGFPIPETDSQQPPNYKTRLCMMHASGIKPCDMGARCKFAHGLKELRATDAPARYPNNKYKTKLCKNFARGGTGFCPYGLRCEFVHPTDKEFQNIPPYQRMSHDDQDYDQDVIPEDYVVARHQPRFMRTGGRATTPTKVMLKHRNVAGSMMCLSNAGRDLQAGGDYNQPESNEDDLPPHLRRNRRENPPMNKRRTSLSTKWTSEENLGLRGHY

Estrogen receptor = Estrogen receptor (Homo sapiens, UniProt P03372);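 further: potency for inhibiting coactivator peptide recruitment to the receptor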
Sequence of Estrogen receptor (P03372 whole entry): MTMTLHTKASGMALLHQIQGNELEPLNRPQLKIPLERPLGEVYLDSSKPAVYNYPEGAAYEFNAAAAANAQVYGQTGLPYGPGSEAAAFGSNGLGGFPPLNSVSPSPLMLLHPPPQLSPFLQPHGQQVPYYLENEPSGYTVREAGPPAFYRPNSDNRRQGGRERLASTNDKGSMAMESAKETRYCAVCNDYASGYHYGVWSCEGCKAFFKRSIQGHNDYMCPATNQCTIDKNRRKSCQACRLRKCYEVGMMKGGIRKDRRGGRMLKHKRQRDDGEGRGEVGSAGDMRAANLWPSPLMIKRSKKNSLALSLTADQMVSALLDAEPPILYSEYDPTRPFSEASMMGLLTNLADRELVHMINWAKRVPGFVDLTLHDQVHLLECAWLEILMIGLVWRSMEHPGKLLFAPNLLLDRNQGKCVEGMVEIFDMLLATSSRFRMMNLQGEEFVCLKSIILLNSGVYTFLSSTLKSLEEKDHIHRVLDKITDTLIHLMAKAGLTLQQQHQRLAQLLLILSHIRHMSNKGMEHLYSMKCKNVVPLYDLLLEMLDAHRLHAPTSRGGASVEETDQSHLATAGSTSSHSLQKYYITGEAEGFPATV

Sequence of NADPH oxidase 1 (Q9Y5S8 whole entry): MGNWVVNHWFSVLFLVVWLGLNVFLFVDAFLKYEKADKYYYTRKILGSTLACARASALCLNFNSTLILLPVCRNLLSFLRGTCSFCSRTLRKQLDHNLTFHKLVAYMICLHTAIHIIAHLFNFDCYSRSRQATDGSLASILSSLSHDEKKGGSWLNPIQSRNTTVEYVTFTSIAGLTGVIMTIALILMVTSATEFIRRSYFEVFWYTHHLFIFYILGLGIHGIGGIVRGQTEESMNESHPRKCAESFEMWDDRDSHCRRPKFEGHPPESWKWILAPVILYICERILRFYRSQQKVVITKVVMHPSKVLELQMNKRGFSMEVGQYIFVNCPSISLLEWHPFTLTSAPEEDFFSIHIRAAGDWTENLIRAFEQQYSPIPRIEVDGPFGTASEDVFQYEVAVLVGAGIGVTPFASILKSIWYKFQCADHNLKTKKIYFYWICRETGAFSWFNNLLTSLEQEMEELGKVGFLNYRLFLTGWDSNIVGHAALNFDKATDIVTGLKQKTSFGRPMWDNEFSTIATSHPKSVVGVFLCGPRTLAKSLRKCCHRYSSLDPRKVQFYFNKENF

CC(O)c1ccc2c(c1)Nc1ccccc1S2 (centres undefined)
IC50 (NADPH oxidase 1): 0.363 µM (active)

COc1ccc(CNCc2ccc(OC(F)(F)F)cc2)cc1
IC50 [1]: 1.64 µM (active)

COc1ccc(-[n+]2c(-c3ccc(Cl)cc3)cn3c2CCc2ccccc2-3)cc1
EC50 [2]: > 150 µM (inactive)
IC50 [3]: 10.3 µM (not active)
IC50 [4]: 7.36 µM (active)
EC50 [5]: 0.24 µM (active)
EC50 [6]: > 60 µM (not active)
IC50 [7]: > 80 µM (inactive)
AC50 (INS1): 2.08 µM (active)
IC50 (Protein Wnt-3a): 25.6 µM (inactive)
IC50 (Galanin receptor type 3): 5.02 µM (active)
EC50 (cells): > 29.9 µM (inactive)

Cc1cc(/C=C2/C(=O)NC(=O)N(c3ccccc3)C2=O)c(C)n1-c1ccc(F)cc1
EC50 [8]: 77.3 µM (active)
IC50 (Estrogen receptor): > 50 µM (not active)

— ChEMBL document CHEMBL1201862, “PubChem BioAssay data set” (2004)
